Where no end group is shown, it is not given here.
How the values were obtained:
[1] = system: GAD 546-554 specific CD8 T cell clone; test: Cytokine release of GAD 546-554 specific CD8 T cell clone incubated with APLs and antigen presenting cells; type: cell-based, mouse; conditions: CD8 T cell clone incubated with APL and antigen presenting cells
Description: Immune cells protect the human body from foreign antigens. However, in autoimmune diseases like type 1 diabetes (T1D), autoreactive T cells recognize pancreatic beta cell related proteins as antigens, leading to beta cell destruction. An altered peptide ligand (APL) strategy can be used to target autoreactive T cells in T1D. GAD 546-554 (SEQ ID NO: 7) is reported as a dominant epitope recognized by autoreactive T cells, in the non-obese diabetic mouse model, that can cause destruction of beta cells. Nine APLs which have single alanine substitution, at different positions of GAD 546-554 (SEQ ID NO: 7), were screened. When GAD 546-554 (SEQ ID NO: 7) specific CD8 T cell clone was incubated with different APLs and antigen presenting cells, APL9 (SEQ ID NO: 8) inhibited both IFN-γ and TNF-α release. In order to improve antigen presentation and endosomal escape of APL9 (SEQ ID NO: 8), a bioconjugate platform of a liposome containing a Formula I bioconjugate of APL9 (SEQ ID NO: 8) and the toll like receptor ligand, Pam3CysSK4 (“CysSK4” disclosed as SEQ ID NO: 16), as well as antibody against macrophage and dendritic cell protein, F4/80, was developed. This immunotherapy strategy is beneficial to prevent T1D by rendering autoreactive immune cells more tolerant of beta cells. […]

[2] = system: GAD 546-554 specific CD8 T cell clone (CTL.546L); test: Interferon gamma release of CTL.546L co-cultured with bioconjugate-treated M12C3.B7 APCs; type: cell-based, mouse; conditions: compared with free peptide GAD 546-544; M12C3.B7 APCs treated 3 hours, co-culture 24 hours (FIG. 29)
Procedure: M12C3B7, B cell line, was used as an APC. […] Later, these cells were co-cultured with CTL.546.L (2×10^5 cells/well) for 24 hours. After 24 hours of incubation, supernatants were collected for studying the interferon gamma release.
Co-culture was incubated for 24 hours at 37° C. Supernatants were used to study the IFNγ release.

Splenocytes = test: T stimulation assay with IFNγ secreting ELISPOT kit on splenocytes of treated NOD mice; type: cell-based, NOD female mice
Procedure: (FIG. 30.) Further, this system was studied in non-diabetic non-obese diabetic model (NOD). […] These mice were sacrificed and their spleens were collected for performing T stimulation assay using IFNγ secreting ELISPOT kit. […] After 36 hours of incubation, IFNγ secreting cells were looked for.

SYQPLGDAV [APL9]
IFN-γ release [1]: inhibited
TNF-α release [1]: inhibited

bioconjugate 546-554: Formula I bioconjugate of GAD 546-554 (SYQPLGDKV, SEQ ID NO: 7) with Pam3CysSK4 (also: Formula I bioconjugate with Pam3CysSK4, attachment site not given here)
IFNγ release [2]: significantly lower

bioconjugate GAD 541-554: bioconjugate of GAD 541-554 (GTTMVSYQPLGDKV, SEQ ID NO: 6) (also: bioconjugate moiety, kind and site not given here)
number of IFNγ secreting cells (Splenocytes; splenocytes from vehicle treated NOD mice, treated in vitro for 36 hours (FIG. 31)): increase in number of IFNγ secreting cells
number of IFNγ secreting cells (Splenocytes; splenocytes of NOD mice primed for three consecutive weeks, then treated with either bioconjugate or bioconjugate with F4/80 for 36 hours): increase in number of IFNγ secreting cells
